Test results published in US20240148709A1, “METHODS OF TREATING EYE PAIN AND EYE DISORDERS” (Aisa Pharma, Inc., priority 2022, published 2024).

Test system: participants with SSc-RP
Assay: Scleroderma Health Assessment Questionnaire (SHAQ), Phase 2a study Part A
Format: in vivo, human
Settings: cilnidipine 10 mg and/or tadalafil 5 mg arms
Protocol: Part A—double-blind, placebo-controlled, parallel-group, dose selection, will assess the safety and efficacy of two doses of cilnidipine (10 mg and 20 mg), alone and in combination with tadalafil. A total of 36 participants will be randomized to one of six prespecified treatment arms. Refer to FIG. 1 for treatment arms in Part A of the study. Dosing last for 12 (±2) days in which participants will self-administer daily doses of assigned treatment in the morning. Each participant will take one capsule and one tablet to blind the active therapy being received.
The standard, validated, patient reported outcome measures tool for SSc patients, the SHAQ, will be collected at the time points specified in the study schedules (FIG. 2 and FIGS. 3A and 3B) to assess the participant's quality of life. The SHAQ includes a Raynaud's VAS that will also be reported separately.
Results: Patients in the study were administered the Scleroderma Health Assessment Questionnaire (SHAQ) at the time of study entry and during clinic visits following the treatment period. The study is a two-part, parallel arm design, prospective, double-blind, randomized study conducted in Australia (Flinders Medical Center). 27 patients were randomized into the first phase of the study, following which a DSMB meeting was held, which reviewed data on the primary study endpoint and key Raynaud's secondary endpoints. Data on the SHAQ was not available for the DSMB to review. The mITT population, in which any data was available post treatment was 24 patients was the analysis population for this first part of the study. The second part (i.e., part B) of the study will randomize 36 patients in a double blind, randomized, prospective, placebo controlled, crossover study. In the first part (i.e., Part A) of the study for which data is presented, patients were randomized into 6 groups, cilnidipine at two doses (10 and 20 mg) alone and in combination with tadalafil 5 mg, tadalafil 5 mg alone, and placebo. […] The DSMB recommended that the study proceed into its double blind prospective cross overpowered second phase and compare cilnidipine 20 mg alone to placebo.

## CN1CC(=O)N2[C@H](c3ccc4c(c3)OCO4)c3[nH]c4ccccc4c3C[C@@H]2C1=O [Tadalafil, tadalafil]
  SHAQ Finger Ulcers, Change from Baseline, Max: 1.00
  SHAQ Finger Ulcers, Change from Baseline, Mean (SD): 0.250 (0.5000)
  SHAQ Finger Ulcers, Change from Baseline, Median: 0.000
  SHAQ Finger Ulcers, Change from Baseline, Min: 0.00
  SHAQ Finger Ulcers, Change from Baseline, Q1: 0.000
  SHAQ Finger Ulcers, Change from Baseline, Q3: 0.500
  SHAQ Finger Ulcers, In Clinic Visit (Day 12), Max: 9.20
  SHAQ Finger Ulcers, In Clinic Visit (Day 12), Mean (SD): 2.325 (4.5836)
  SHAQ Finger Ulcers, In Clinic Visit (Day 12), Median: 0.050
  SHAQ Finger Ulcers, In Clinic Visit (Day 12), Min: 0.00
  SHAQ Finger Ulcers, In Clinic Visit (Day 12), Q1: 0.000
  SHAQ Finger Ulcers, In Clinic Visit (Day 12), Q3: 4.650
  SHAQ Finger Ulcers, Percent Change from Baseline, Max: 12.2%
  SHAQ Finger Ulcers, Percent Change from Baseline, Mean (SD): 6.10 (8.623) %
  SHAQ Finger Ulcers, Percent Change from Baseline, Median: 6.10%
  SHAQ Finger Ulcers, Percent Change from Baseline, Min: 0.0%
  SHAQ Finger Ulcers, Percent Change from Baseline, Q1: 0.00%
  SHAQ Finger Ulcers, Percent Change from Baseline, Q3: 12.20%
  SHAQ Overall Change in Severity, Change from Baseline, Max: 2.40
  SHAQ Overall Change in Severity, Change from Baseline, Median: 0.700
  SHAQ Overall Change in Severity, Change from Baseline, Min: −1.30
  SHAQ Overall Change in Severity, Change from Baseline, Q1: −0.600
  SHAQ Overall Change in Severity, Change from Baseline, Q3: 1.850
  SHAQ Overall Change in Severity, In Clinic Visit (Day 12), Max: 9.10
  SHAQ Overall Change in Severity, In Clinic Visit (Day 12), Mean (SD): 5.600 (4.2528)
  SHAQ Overall Change in Severity, In Clinic Visit (Day 12), Median: 6.550
  SHAQ Overall Change in Severity, In Clinic Visit (Day 12), Min: 0.20
  SHAQ Overall Change in Severity, In Clinic Visit (Day 12), Q1: 2.200
  SHAQ Overall Change in Severity, In Clinic Visit (Day 12), Q3: 9.000
  SHAQ Overall Change in Severity, Percent Change from Baseline, Max: 100.0%
  SHAQ Overall Change in Severity, Percent Change from Baseline, Mean (SD): 32.49 (51.568) %
  SHAQ Overall Change in Severity, Percent Change from Baseline, Median: 26.790%
  SHAQ Overall Change in Severity, Percent Change from Baseline, Min: −23.6%
  SHAQ Overall Change in Severity, Percent Change from Baseline, Q1: −3.48%
  SHAQ Overall Change in Severity, Percent Change from Baseline, Q3: 68.46%
  SHAQ Standard disability index, Change from Baseline, Max: 0.00
  SHAQ Standard disability index, Change from Baseline, Mean (SD): −0.063 (0.0722)
  SHAQ Standard disability index, Change from Baseline, Median: −0.063
  SHAQ Standard disability index, Change from Baseline, Min: −0.13
  SHAQ Standard disability index, Change from Baseline, Q1: −0.125
  SHAQ Standard disability index, Change from Baseline, Q3: 0.000
  SHAQ Standard disability index, In Clinic Visit (Day 12), Max: 1.00
  SHAQ Standard disability index, In Clinic Visit (Day 12), Mean (SD): 0.531 (0.4130)
  SHAQ Standard disability index, In Clinic Visit (Day 12), Median: 0.563
  SHAQ Standard disability index, In Clinic Visit (Day 12), Min: 0.00
  SHAQ Standard disability index, In Clinic Visit (Day 12), Q1: 0.250
  SHAQ Standard disability index, In Clinic Visit (Day 12), Q3: 0.813
  SHAQ Standard disability index, Percent Change from Baseline, Max: 0.0%
  SHAQ Standard disability index, Percent Change from Baseline, Mean (SD): −9.26 (8.486) %
  SHAQ Standard disability index, Percent Change from Baseline, Median: −11.11%
  SHAQ Standard disability index, Percent Change from Baseline, Min: −16.7%
  SHAQ Standard disability index, Percent Change from Baseline, Q1: −16.67%
  SHAQ Standard disability index, Percent Change from Baseline, Q3: 0.00%
  SHAQ Visual Analog Scale-Breathing Problems, Change from Baseline, Max: 2.80
  SHAQ Visual Analog Scale-Breathing Problems, Change from Baseline, Mean (SD): 0.500 (2.5599)
  SHAQ Visual Analog Scale-Breathing Problems, Change from Baseline, Median: 1.050
  SHAQ Visual Analog Scale-Breathing Problems, Change from Baseline, Min: −2.90
  SHAQ Visual Analog Scale-Breathing Problems, Change from Baseline, Q1: −1.450
  SHAQ Visual Analog Scale-Breathing Problems, Change from Baseline, Q3: 2.450
  SHAQ Visual Analog Scale-Breathing Problems, In Clinic Visit (Day 12), Max: 9.20
  SHAQ Visual Analog Scale-Breathing Problems, In Clinic Visit (Day 12), Mean (SD): 4.300 (4.8840)
  SHAQ Visual Analog Scale-Breathing Problems, In Clinic Visit (Day 12), Median: 4.000
  SHAQ Visual Analog Scale-Breathing Problems, In Clinic Visit (Day 12), Min: 0.00
  SHAQ Visual Analog Scale-Breathing Problems, In Clinic Visit (Day 12), Q1: 0.100
  SHAQ Visual Analog Scale-Breathing Problems, In Clinic Visit (Day 12), Q3: 8.500
  SHAQ Visual Analog Scale-Breathing Problems, Percent Change from Baseline, Max: 56.0%
  SHAQ Visual Analog Scale-Breathing Problems, Percent Change from Baseline, Mean (SD): −2.66 (79.815) %
  SHAQ Visual Analog Scale-Breathing Problems, Percent Change from Baseline, Median: 29.58%
  SHAQ Visual Analog Scale-Breathing Problems, Percent Change from Baseline, Min: −93.5%
  SHAQ Visual Analog Scale-Breathing Problems, Percent Change from Baseline, Q1: −93.55%
  SHAQ Visual Analog Scale-Breathing Problems, Percent Change from Baseline, Q3: 56.00%
  SHAQ Visual Analog Scale-Intestinal Problems, Change from Baseline, Max: 1.80
  SHAQ Visual Analog Scale-Intestinal Problems, Change from Baseline, Mean (SD): −0.125 (1.6800)
  SHAQ Visual Analog Scale-Intestinal Problems, Change from Baseline, Median: 0.000
  SHAQ Visual Analog Scale-Intestinal Problems, Change from Baseline, Min: −2.30
  SHAQ Visual Analog Scale-Intestinal Problems, Change from Baseline, Q1: −1.150
  SHAQ Visual Analog Scale-Intestinal Problems, Change from Baseline, Q3: 0.900
  SHAQ Visual Analog Scale-Intestinal Problems, In Clinic Visit (Day 12), Max: 9.20
  SHAQ Visual Analog Scale-Intestinal Problems, In Clinic Visit (Day 12), Mean (SD): 3.025 (4.3162)
  SHAQ Visual Analog Scale-Intestinal Problems, In Clinic Visit (Day 12), Median: 1.450
  SHAQ Visual Analog Scale-Intestinal Problems, In Clinic Visit (Day 12), Min: 0.00
  SHAQ Visual Analog Scale-Intestinal Problems, In Clinic Visit (Day 12), Q1: 0.050
  SHAQ Visual Analog Scale-Intestinal Problems, In Clinic Visit (Day 12), Q3: 6.000
  SHAQ Visual Analog Scale-Intestinal Problems, Percent Change from Baseline, Max: 24.3%
  SHAQ Visual Analog Scale-Intestinal Problems, Percent Change from Baseline, Mean (SD): −6.92 (35.225) %
  SHAQ Visual Analog Scale-Intestinal Problems, Percent Change from Baseline, Median: 0.00%
  SHAQ Visual Analog Scale-Intestinal Problems, Percent Change from Baseline, Min: −45.1%
  SHAQ Visual Analog Scale-Intestinal Problems, Percent Change from Baseline, Q1: −45.10%
  SHAQ Visual Analog Scale-Intestinal Problems, Percent Change from Baseline, Q3: 24.32%
  SHAQ Visual Analog Scale-Pain, Change from Baseline, Max: 1.50
  SHAQ Visual Analog Scale-Pain, Change from Baseline, Mean (SD): 1.000 (0.4359)
  SHAQ Visual Analog Scale-Pain, Change from Baseline, Median: 0.800
  SHAQ Visual Analog Scale-Pain, Change from Baseline, Min: 0.70
  SHAQ Visual Analog Scale-Pain, Change from Baseline, Q1: 0.700
  SHAQ Visual Analog Scale-Pain, Change from Baseline, Q3: 1.500
  SHAQ Visual Analog Scale-Pain, In Clinic Visit (Day 12), Max: 9.20
  SHAQ Visual Analog Scale-Pain, In Clinic Visit (Day 12), Mean (SD): 5.300 (4.1577)
  SHAQ Visual Analog Scale-Pain, In Clinic Visit (Day 12), Median: 5.850
  SHAQ Visual Analog Scale-Pain, In Clinic Visit (Day 12), Min: 0.30
  SHAQ Visual Analog Scale-Pain, In Clinic Visit (Day 12), Q1: 1.900
  SHAQ Visual Analog Scale-Pain, In Clinic Visit (Day 12), Q3: 8.700
  SHAQ Visual Analog Scale-Pain, Percent Change from Baseline, Max: 75.0%
  SHAQ Visual Analog Scale-Pain, Percent Change from Baseline, Mean (SD): 31.35 (37.825) %
  SHAQ Visual Analog Scale-Pain, Percent Change from Baseline, Median: 10.81%
  SHAQ Visual Analog Scale-Pain, Percent Change from Baseline, Min: 8.2%
  SHAQ Visual Analog Scale-Pain, Percent Change from Baseline, Q1: 8.24%
  SHAQ Visual Analog Scale-Pain, Percent Change from Baseline, Q3: 75.00%
  SHAQ Visual Analog Scale-Raynaud's, Change from Baseline, Max: −0.10
  SHAQ Visual Analog Scale-Raynaud's, Change from Baseline, Mean (SD): −0.825 (0.9674)
  SHAQ Visual Analog Scale-Raynaud's, Change from Baseline, Median: −0.500
  SHAQ Visual Analog Scale-Raynaud's, Change from Baseline, Min: −2.20
  SHAQ Visual Analog Scale-Raynaud's, Change from Baseline, Q1: −1.500
  SHAQ Visual Analog Scale-Raynaud's, Change from Baseline, Q3: −0.150
  SHAQ Visual Analog Scale-Raynaud's, In Clinic Visit (Day 12), Max: 9.20
  SHAQ Visual Analog Scale-Raynaud's, In Clinic Visit (Day 12), Mean (SD): 4.950 (3.7749)
  SHAQ Visual Analog Scale-Raynaud's, In Clinic Visit (Day 12), Median: 5.200
  SHAQ Visual Analog Scale-Raynaud's, In Clinic Visit (Day 12), Min: 0.20
  SHAQ Visual Analog Scale-Raynaud's, In Clinic Visit (Day 12), Q1: 2.200
  SHAQ Visual Analog Scale-Raynaud's, In Clinic Visit (Day 12), Q3: 7.700
  SHAQ Visual Analog Scale-Raynaud's, Percent Change from Baseline, Max: −3.1%
  SHAQ Visual Analog Scale-Raynaud's, Percent Change from Baseline, Mean (SD): −19.71 (16.460) %
  SHAQ Visual Analog Scale-Raynaud's, Percent Change from Baseline, Median: −20.67%
  SHAQ Visual Analog Scale-Raynaud's, Percent Change from Baseline, Min: −34.4%
  SHAQ Visual Analog Scale-Raynaud's, Percent Change from Baseline, Q1: −33.85%
  SHAQ Visual Analog Scale-Raynaud's, Percent Change from Baseline, Q3: −5.56%
  SHAQ alternative disability index, Change from Baseline, Max: 0.00
  SHAQ alternative disability index, Change from Baseline, Mean (SD): −0.094 (0.0625)
  SHAQ alternative disability index, Change from Baseline, Median: −0.125
  SHAQ alternative disability index, Change from Baseline, Min: −0.13
  SHAQ alternative disability index, Change from Baseline, Q1: −0.125
  SHAQ alternative disability index, Change from Baseline, Q3: −0.063
  SHAQ alternative disability index, In Clinic Visit (Day 12), Max: 1.00
  SHAQ alternative disability index, In Clinic Visit (Day 12), Mean (SD): 0.375 (0.4787)
  SHAQ alternative disability index, In Clinic Visit (Day 12), Median: 0.250
  SHAQ alternative disability index, In Clinic Visit (Day 12), Min: 0.00
  SHAQ alternative disability index, In Clinic Visit (Day 12), Q1: 0.000
  SHAQ alternative disability index, In Clinic Visit (Day 12), Q3: 0.750
  SHAQ alternative disability index, Percent Change from Baseline, Max: −11.1%
  SHAQ alternative disability index, Percent Change from Baseline, Mean (SD): −43.70 (48.956) %
  SHAQ alternative disability index, Percent Change from Baseline, Median: −20.00%
  SHAQ alternative disability index, Percent Change from Baseline, Min: −100.0%
  SHAQ alternative disability index, Percent Change from Baseline, Q1: −100.00%
  SHAQ alternative disability index, Percent Change from Baseline, Q3: −11.11%
